Test system: LdtMt2^C354S
Assay type: biochemical, Mycobacterium tuberculosis

## GlcNAc-MurNAc-L-Ala-D-iGluNH2-m-DAPNH2-D-Ala-D-Ala [Compound 4]
  Product formation with LdtMt2^C354S: no product formation was observed
